From PubChem BioAssay AID256 (DTP/NCI, 2004)
Values joined by “and” are separate entries in the source; they are usually repeats but may differ in a detail not shown here. Equal entries are not always repeated. Inconclusive results and toxic doses are left out.

System: CD2F1 mice, L1210 leukemia ip, survival T/C
Experiment: NCI In Vivo Anticancer Drug Screen. Data for tumor model L1210 Leukemia (intraperitoneal) in CD2F1 (CDF1) mice
Conditions: higher = longer survival
Method in brief: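 Vehicle-treated tumor-bearing mice served as controls (C) for compound-treated mice (T). Reported figure is T divided by C.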

[1] = endpoint: mean survival time, dose: 100.0 mg/kg/injection, schedule: Q01DX001 (ip), vehicle: saline with Tween-80
[2] = endpoint: mean survival time, dose: 200.0 mg/kg/injection, schedule: Q01DX009 (ip), vehicle: saline with Tween-80
[3] = endpoint: mean survival time, dose: 400.0 mg/kg/injection, schedule: Q01DX009 (ip), vehicle: saline with Tween-80
[4] = endpoint: mean survival time, dose: 200.0 mg/kg/injection, schedule: Q01DX001 (ip), vehicle: saline with Tween-80
[5] = endpoint: mean survival time, dose: 400.0 mg/kg/injection, schedule: Q01DX001 (ip), vehicle: saline with Tween-80
[6] = endpoint: mean survival time, dose: 100.0 mg/kg/injection, schedule: Q01DX009 (ip), vehicle: saline with Tween-80
[7] = endpoint: mean survival time, dose: 100.0 mg/kg/injection, schedule: Q04DX003 (ip), vehicle: saline with Tween-80
[8] = endpoint: mean survival time, dose: 200.0 mg/kg/injection, schedule: Q04DX003 (ip), vehicle: saline with Tween-80
[9] = endpoint: mean survival time, dose: 400.0 mg/kg/injection, schedule: Q04DX003 (ip), vehicle: saline with Tween-80

OC(c1ccccc1)(c1ccccc1)C1c2ccccc2-c2[nH]c3ccccc3c21 (stereo not drawn)
T/C (endpoint: mean survival time, dose: 25.0 mg/kg/injection, schedule: Q01DX001 (ip), vehicle: saline with Tween-80): 96 % of control
T/C (endpoint: mean survival time, dose: 50.0 mg/kg/injection, schedule: Q01DX001 (ip), vehicle: saline with Tween-80): 93 % of control
T/C [1]: 89 % of control

Cc1ccc(N=C(C(=Nc2ccc(C)cc2)c2ccccc2)c2ccccc2)cc1
T/C [2]: 101 % of control
T/C [3]: 92 % of control

CC(C)CC(Nc1sc([N+](=O)[O-])cc1[N+](=O)[O-])C(=O)O (stereo not drawn)
T/C [1]: 105 % of control
T/C [4]: 102 % of control
T/C [5]: 107 % of control

Cc1ccc(C(C)C)c(O)c1O
T/C (endpoint: mean survival time, dose: 25.0 mg/kg/injection, schedule: Q01DX009 (ip), vehicle: saline with Tween-80): 94 % of control
T/C (endpoint: mean survival time, dose: 25.0 mg/kg/injection, schedule: Q04DX003 (ip), vehicle: saline with Tween-80): 96 % of control
T/C (endpoint: mean survival time, dose: 50.0 mg/kg/injection, schedule: Q01DX009 (ip), vehicle: saline with Tween-80): 103 % of control
T/C (endpoint: mean survival time, dose: 50.0 mg/kg/injection, schedule: Q04DX003 (ip), vehicle: saline with Tween-80): 98 % of control
T/C [6]: 97 % of control
T/C [7]: 94 % of control

CCn1cnc2c(=S)nc[nH]c21
T/C (endpoint: mean survival time, dose: 9.4 mg/kg/injection, schedule: Q03HX024 (ip), vehicle: saline): 107 % of control
T/C (endpoint: mean survival time, dose: 15.0 mg/kg/injection, schedule: Q01DX009 (ip), vehicle: saline): 104 % of control
T/C (endpoint: mean survival time, dose: 15.0 mg/kg/injection, schedule: Q03HX008 (ip), vehicle: saline): 121 % of control
T/C (endpoint: mean survival time, dose: 18.8 mg/kg/injection, schedule: Q03HX016 (ip), vehicle: saline): 101 % of control
T/C (endpoint: mean survival time, dose: 30.0 mg/kg/injection, schedule: Q01DX009 (ip), vehicle: saline): 113 % of control
T/C (endpoint: mean survival time, dose: 37.5 mg/kg/injection, schedule: Q03HX024 (ip), vehicle: saline): 156 % of control
T/C (endpoint: mean survival time, dose: 56.3 mg/kg/injection, schedule: Q03HX024 (ip), vehicle: saline): 163 % of control
T/C (endpoint: mean survival time, dose: 60.0 mg/kg/injection, schedule: Q03HX008 (ip), vehicle: saline): 161 % of control
T/C (endpoint: mean survival time, dose: 75.0 mg/kg/injection, schedule: Q03DX003 (ip), vehicle: saline): 101 % of control
T/C (endpoint: mean survival time, dose: 75.0 mg/kg/injection, schedule: Q03HX016 (ip), vehicle: saline): 161 % of control
T/C (endpoint: mean survival time, dose: 75.0 mg/kg/injection, schedule: Q04DX003 (ip), vehicle: saline): 108 % of control and 109 % of control
T/C (endpoint: mean survival time, dose: 120.0 mg/kg/injection, schedule: Q01DX009 (ip), vehicle: saline): 87 % of control
T/C (endpoint: mean survival time, dose: 150.0 mg/kg/injection, schedule: Q01DX001 (ip), vehicle: saline): 115 % of control
T/C (endpoint: mean survival time, dose: 150.0 mg/kg/injection, schedule: Q01DX007 (ip), vehicle: saline): 96 % of control
T/C (endpoint: mean survival time, dose: 150.0 mg/kg/injection, schedule: Q01DX009 (ip), vehicle: saline): 106 % of control
T/C (endpoint: mean survival time, dose: 150.0 mg/kg/injection, schedule: Q03DX003 (ip), vehicle: saline): 112 % of control
T/C (endpoint: mean survival time, dose: 300.0 mg/kg/injection, schedule: Q04DX003 (ip), vehicle: saline): 112 % of control
T/C (endpoint: mean survival time, dose: 300.0 mg/kg/injection, schedule: Q08DX002 (ip), vehicle: saline): 151 % of control
T/C (endpoint: mean survival time, dose: 600.0 mg/kg/injection, schedule: Q08DX002 (ip), vehicle: saline): 105 % of control
T/C (endpoint: median survival time, dose: 12.5 mg/kg/injection, schedule: Q01DX009 (ip), vehicle: saline with Tween-80): 118 % of control
T/C (endpoint: median survival time, dose: 25.0 mg/kg/injection, schedule: Q01DX009 (ip), vehicle: saline with Tween-80): 118 % of control
T/C (endpoint: median survival time, dose: 31.3 mg/kg/injection, schedule: Q01DX009 (ip), vehicle: saline): 100 % of control and 111 % of control
T/C (endpoint: median survival time, dose: 62.5 mg/kg/injection, schedule: Q01DX009 (ip), vehicle: saline): 188 % of control
T/C (endpoint: median survival time, dose: 100.0 mg/kg/injection, schedule: Q01DX009 (ip), vehicle: saline with Tween-80): 183 % of control
T/C (endpoint: median survival time, dose: 125.0 mg/kg/injection, schedule: Q01DX009 (ip), vehicle: saline): 116 % of control
T/C (endpoint: median survival time, dose: 200.0 mg/kg/injection, schedule: Q01DX009 (ip), vehicle: saline with Tween-80): 118 % of control

CCCCN=[N+]=[N-]
T/C (endpoint: mean survival time, dose: 25.0 mg/kg/injection, schedule: Q01DX009 (ip), vehicle: water): 94 % of control
T/C (endpoint: mean survival time, dose: 100.0 mg/kg/injection, schedule: Q01DX009 (ip), vehicle: water): 96 % of control
T/C (endpoint: mean survival time, dose: 200.0 mg/kg/injection, schedule: Q01DX009 (ip), vehicle: water): 91 % of control

COC(=O)NC(S(=O)(=O)O)S(=O)(=O)O
T/C (endpoint: mean survival time, dose: 100.0 mg/kg/injection, schedule: Q01DX001 (ip), vehicle: saline): 108 % of control
T/C (endpoint: mean survival time, dose: 200.0 mg/kg/injection, schedule: Q01DX001 (ip), vehicle: saline): 101 % of control
T/C (endpoint: mean survival time, dose: 400.0 mg/kg/injection, schedule: Q01DX001 (ip), vehicle: saline): 108 % of control

COc1cc2c(cc1OC)C[N+]1(C)CCc3cc(OC)c(OC)cc3C1C2 (stereo not drawn)
T/C (endpoint: mean survival time, dose: 5.0 mg/kg/injection, schedule: Q01DX001 (ip), vehicle: saline): 97 % of control
T/C (endpoint: mean survival time, dose: 10.0 mg/kg/injection, schedule: Q01DX001 (ip), vehicle: saline): 93 % of control
T/C (endpoint: mean survival time, dose: 20.0 mg/kg/injection, schedule: Q01DX001 (ip), vehicle: saline): 103 % of control
T/C (endpoint: mean survival time, dose: 40.0 mg/kg/injection, schedule: Q01DX001 (ip), vehicle: saline): 97 % of control

CCCSCC(C)C
T/C [7]: 102 % of control
T/C [8]: 93 % of control
T/C [9]: 108 % of control

O=C(Nc1ccccc1)Nc1ccccc1F
T/C [6]: 95 % of control
T/C [2]: 113 % of control
T/C [3]: 98 % of control

CCOC(=O)/C=C(/Nc1ccc(S(=O)(=O)F)cc1)c1ccccc1
T/C (endpoint: mean survival time, dose: 100.0 mg/kg/injection, schedule: Q01DX009 (ip), vehicle: Klucel (hydroxypropylcellulose) (HPC)): 100 % of control
T/C (endpoint: mean survival time, dose: 200.0 mg/kg/injection, schedule: Q01DX009 (ip), vehicle: Klucel (hydroxypropylcellulose) (HPC)): 100 % of control
T/C (endpoint: mean survival time, dose: 400.0 mg/kg/injection, schedule: Q01DX009 (ip), vehicle: Klucel (hydroxypropylcellulose) (HPC)): 97 % of control

CC12CCC(O)CC1=CCC1C2CCC2(C)C(O)CCC12 (stereo not drawn)
T/C [1]: 97 % of control
T/C [4]: 90 % of control
T/C [5]: 91 % of control

CCC(C(C)N1CC(=O)NC(=O)C1)N1CC(=O)NC(=O)C1 (stereo not drawn)
T/C (endpoint: mean survival time, dose: 0.06 mg/kg/injection, schedule: Q01DX009 (ip), vehicle: Klucel (hydroxypropylcellulose) (HPC)): 109 % of control
T/C (endpoint: mean survival time, dose: 0.13 mg/kg/injection, schedule: Q01DX009 (ip), vehicle: Klucel (hydroxypropylcellulose) (HPC)): 114 % of control
T/C (endpoint: mean survival time, dose: 0.5 mg/kg/injection, schedule: Q04DX003 (ip), vehicle: Klucel (hydroxypropylcellulose) (HPC)): 119 % of control
T/C (endpoint: mean survival time, dose: 1.0 mg/kg/injection, schedule: Q01DX009 (ip), vehicle: Klucel (hydroxypropylcellulose) (HPC)): 120 % of control
T/C (endpoint: mean survival time, dose: 1.0 mg/kg/injection, schedule: Q04DX003 (ip), vehicle: Klucel (hydroxypropylcellulose) (HPC)): 154 % of control
T/C (endpoint: mean survival time, dose: 2.0 mg/kg/injection, schedule: Q01DX009 (ip), vehicle: Klucel (hydroxypropylcellulose) (HPC)): 89 % of control
T/C (endpoint: mean survival time, dose: 2.0 mg/kg/injection, schedule: Q04DX003 (ip), vehicle: Klucel (hydroxypropylcellulose) (HPC)): 178 % of control
T/C (endpoint: mean survival time, dose: 4.0 mg/kg/injection, schedule: Q04DX003 (ip), vehicle: Klucel (hydroxypropylcellulose) (HPC)): 167 % of control
T/C (endpoint: mean survival time, dose: 8.0 mg/kg/injection, schedule: Q04DX003 (ip), vehicle: Klucel (hydroxypropylcellulose) (HPC)): 100 % of control

COc1cc2cc(c1Cl)N(C)C(=O)CC(OC(=O)CC(C)C)C1(C)OC1C(C)C1CC(O)(NC(=O)O1)C(OC)/C=C/C=C(C)C2 (stereo not drawn)
T/C (endpoint: mean survival time, dose: 3.8 micrograms/kg/injection, schedule: Q01DX009 (ip), vehicle: saline + alcohol): 103 % of control
T/C (endpoint: mean survival time, dose: 7.5 micrograms/kg/injection, schedule: Q01DX009 (ip), vehicle: saline + alcohol): 103 % of control
T/C (endpoint: mean survival time, dose: 15.0 micrograms/kg/injection, schedule: Q01DX009 (ip), vehicle: saline + alcohol): 112 % of control
T/C (endpoint: mean survival time, dose: 30.0 micrograms/kg/injection, schedule: Q01DX009 (ip), vehicle: saline + alcohol): 112 % of control
T/C (endpoint: mean survival time, dose: 60.0 micrograms/kg/injection, schedule: Q01DX009 (ip), vehicle: saline + alcohol): 111 % of control

Oc1ccccc1-c1nnc(-c2ccccc2)o1
T/C (endpoint: mean survival time, dose: 50.0 mg/kg/injection, schedule: Q04DX002 (ip), vehicle: saline with Tween-80): 91 % of control
T/C (endpoint: mean survival time, dose: 100.0 mg/kg/injection, schedule: Q04DX002 (ip), vehicle: saline with Tween-80): 87 % of control
T/C (endpoint: mean survival time, dose: 200.0 mg/kg/injection, schedule: Q04DX002 (ip), vehicle: saline with Tween-80): 95 % of control
T/C (endpoint: mean survival time, dose: 400.0 mg/kg/injection, schedule: Q04DX002 (ip), vehicle: saline with Tween-80): 87 % of control

CC1(C)C(=O)CCC2(C)C(OC(=O)c3ccc(C(=O)O)cc3)CCCC12 (stereo not drawn)
T/C [7]: 96 % of control
T/C [8]: 93 % of control
T/C [9]: 93 % of control
